Results from ChEMBL document CHEMBL1146200, “In vitro activity of aurein 1.2 alone and in combination with antibiotics against gram-positive nosocomial cocci” (Antimicrob Agents Chemother, 2007).
≈ marks a conversion by molar mass, not a printed value. Non-standard residues stand in square brackets, D forms with d. Residues, ends and D or L forms follow the SMILES beside them. Phg = N[C@H](C(=O)O)c1ccccc1

Columns and labels:
Staphylococcus aureus [1] = test: Antimicrobial activity against […] Staphylococcus aureus ATCC 29213; assay type: functional; settings: for MIC50 / MIC90: Staphylococcus aureus, ATCC 29213
Enterococcus faecalis [2] = test: Antimicrobial activity against vancomycin-resistant Enterococcus faecalis ATCC 51299; assay type: functional; settings: for MIC50 / MIC90: Enterococcus faecalis, ATCC 51299
A549 = test: Cytotoxicity against human A549 cells; assay type: cell-based
Enterococcus faecalis [3] = test: Antimicrobial activity against vancomycin-susceptible Enterococcus faecalis ATCC 29212; assay type: functional; settings: for MIC50 / MIC90: Enterococcus faecalis, ATCC 29212
Staphylococcus aureus [4] = test: Antimicrobial activity against […] Staphylococcus aureus ATCC 43300; assay type: functional; settings: for MIC50 / MIC90: Staphylococcus aureus, ATCC 43300
Streptococcus pyogenes = test: Antimicrobial activity against Streptococcus pyogenes ATCC 19615; assay type: functional; settings: for MIC50 / MIC90: Streptococcus pyogenes, ATCC 19615

CC[C@H](C)[C@H](NC(=O)[C@H](CCCCN)NC(=O)[C@H](CCCCN)NC(=O)[C@@H](NC(=O)[C@@H](NC(=O)[C@H](CC(=O)O)NC(=O)[C@H](Cc1ccccc1)NC(=O)[C@H](CC(C)C)NC(=O)CN)[C@@H](C)CC)[C@@H](C)CC)C(=O)N[C@@H](C)C(=O)N[C@@H](CCC(=O)O)C(=O)N[C@@H](CO)C(=O)N[C@H](C(N)=O)c1ccccc1 (H-GLFDIIKKIAES[Phg]-NH2)
MBC50 (Staphylococcus aureus [1]): 8 mg/L (≈ 5.46 µM) | MBC90 (Staphylococcus aureus [1]): 16 mg/L (≈ 10.9 µM) | MIC50 (Staphylococcus aureus [1]): 4 mg/L (≈ 2.73 µM) | MIC90 (Staphylococcus aureus [1]): 8 mg/L (≈ 5.46 µM) | MBC50 (Enterococcus faecalis [2]): 16 mg/L (≈ 10.9 µM) | MBC90 (Enterococcus faecalis [2]): 32 mg/L (≈ 21.8 µM) | MIC50 (Enterococcus faecalis [2]): 8 mg/L (≈ 5.46 µM) | MIC90 (Enterococcus faecalis [2]): 16 mg/L (≈ 10.9 µM) | Activity (A549): 2% | MBC50 (Enterococcus faecalis [3]): 16 mg/L (≈ 10.9 µM) | MBC90 (Enterococcus faecalis [3]): 32 mg/L (≈ 21.8 µM) | MIC50 (Enterococcus faecalis [3]): 8 mg/L (≈ 5.46 µM) | MIC90 (Enterococcus faecalis [3]): 16 mg/L (≈ 10.9 µM) | MBC50 (Staphylococcus aureus [4]): 8 mg/L (≈ 5.46 µM) | MBC90 (Staphylococcus aureus [4]): 16 mg/L (≈ 10.9 µM) | MIC50 (Staphylococcus aureus [4]): 4 mg/L (≈ 2.73 µM) | MIC90 (Staphylococcus aureus [4]): 8 mg/L (≈ 5.46 µM) | MBC50 (Streptococcus pyogenes): 4 mg/L (≈ 2.73 µM) | MBC90 (Streptococcus pyogenes): 8 mg/L (≈ 5.46 µM) | MIC50 (Streptococcus pyogenes): 2 mg/L (≈ 1.36 µM) | MIC90 (Streptococcus pyogenes): 4 mg/L (≈ 2.73 µM)

CC[C@H]1OC(=O)[C@H](C)[C@@H](O[C@H]2C[C@@](C)(OC)[C@@H](O)[C@H](C)O2)[C@H](C)[C@@H](O[C@@H]2O[C@H](C)C[C@H](N(C)C)[C@H]2O)[C@](C)(OC)C[C@@H](C)C(=O)[C@H](C)[C@@H](O)[C@]1(C)O [CLARITHROMYCIN]
MBC50 (Staphylococcus aureus [1]): 32 mg/L (≈ 42.8 µM) | MIC50 (Staphylococcus aureus [1]): 4 mg/L (≈ 5.35 µM) | MIC90 (Staphylococcus aureus [1]): 16 mg/L (≈ 21.4 µM) | MBC50 (Enterococcus faecalis [2]): 32 mg/L (≈ 42.8 µM) | MIC50 (Enterococcus faecalis [2]): 16 mg/L (≈ 21.4 µM) | MIC90 (Enterococcus faecalis [2]): 64 mg/L (≈ 85.6 µM) | MBC50 (Enterococcus faecalis [3]): 16 mg/L (≈ 21.4 µM) | MBC90 (Enterococcus faecalis [3]): 128 mg/L (≈ 171 µM) | MIC50 (Enterococcus faecalis [3]): 8 mg/L (≈ 10.7 µM) | MIC90 (Enterococcus faecalis [3]): 32 mg/L (≈ 42.8 µM) | MBC50 (Staphylococcus aureus [4]): 16 mg/L (≈ 21.4 µM) | MBC90 (Staphylococcus aureus [4]): 64 mg/L (≈ 85.6 µM) | MIC50 (Staphylococcus aureus [4]): 2 mg/L (≈ 2.67 µM) | MIC90 (Staphylococcus aureus [4]): 8 mg/L (≈ 10.7 µM) | MBC50 (Streptococcus pyogenes): 8 mg/L (≈ 10.7 µM) | MBC90 (Streptococcus pyogenes): 32 mg/L (≈ 42.8 µM) | MIC50 (Streptococcus pyogenes): 2 mg/L (≈ 2.67 µM) | MIC90 (Streptococcus pyogenes): 8 mg/L (≈ 10.7 µM)

C[C@@H](O)[C@H]1C(=O)N2C(C(=O)O)=C(SCCNC=N)C[C@H]12 [IMIPENEM ANHYDROUS]
MBC50 (Staphylococcus aureus [1]): 64 mg/L (≈ 214 µM) | MBC90 (Staphylococcus aureus [1]): 256 mg/L (≈ 855 µM) | MIC50 (Staphylococcus aureus [1]): 16 mg/L (≈ 53.4 µM) | MIC90 (Staphylococcus aureus [1]): 128 mg/L (≈ 428 µM) | MBC50 (Enterococcus faecalis [2]): 32 mg/L (≈ 107 µM) | MBC90 (Enterococcus faecalis [2]): 128 mg/L (≈ 428 µM) | MIC50 (Enterococcus faecalis [2]): 16 mg/L (≈ 53.4 µM) | MIC90 (Enterococcus faecalis [2]): 32 mg/L (≈ 107 µM) | MBC50 (Enterococcus faecalis [3]): 16 mg/L (≈ 53.4 µM) | MBC90 (Enterococcus faecalis [3]): 64 mg/L (≈ 214 µM) | MIC50 (Enterococcus faecalis [3]): 4 mg/L (≈ 13.4 µM) | MIC90 (Enterococcus faecalis [3]): 16 mg/L (≈ 53.4 µM) | MBC50 (Staphylococcus aureus [4]): 4 mg/L (≈ 13.4 µM) | MBC90 (Staphylococcus aureus [4]): 16 mg/L (≈ 53.4 µM) | MIC50 (Staphylococcus aureus [4]): 1 mg/L (≈ 3.34 µM) | MIC90 (Staphylococcus aureus [4]): 4 mg/L (≈ 13.4 µM) | MBC50 (Streptococcus pyogenes): 1 mg/L (≈ 3.34 µM) | MBC90 (Streptococcus pyogenes): 4 mg/L (≈ 13.4 µM) | MIC50 (Streptococcus pyogenes): 0.5 mg/L (≈ 1.67 µM) | MIC90 (Streptococcus pyogenes): 1 mg/L (≈ 3.34 µM)

CC(=O)NC[C@H]1CN(c2ccc(N3CCOCC3)c(F)c2)C(=O)O1 [LINEZOLID]
MIC50 (Staphylococcus aureus [1]): 0.5 mg/L (≈ 1.48 µM) | MIC90 (Staphylococcus aureus [1]): 2 mg/L (≈ 5.93 µM) | MBC50 (Enterococcus faecalis [2]): 4 mg/L (≈ 11.9 µM) | MIC50 (Enterococcus faecalis [2]): 1 mg/L (≈ 2.96 µM) | MIC90 (Enterococcus faecalis [2]): 2 mg/L (≈ 5.93 µM) | MBC50 (Enterococcus faecalis [3]): 2 mg/L (≈ 5.93 µM) | MBC90 (Enterococcus faecalis [3]): 4 mg/L (≈ 11.9 µM) | MIC50 (Enterococcus faecalis [3]): 1 mg/L (≈ 2.96 µM) | MIC90 (Enterococcus faecalis [3]): 2 mg/L (≈ 5.93 µM) | MBC50 (Staphylococcus aureus [4]): 0.5 mg/L (≈ 1.48 µM) | MBC90 (Staphylococcus aureus [4]): 2 mg/L (≈ 5.93 µM) | MIC50 (Staphylococcus aureus [4]): 0.5 mg/L (≈ 1.48 µM) | MIC90 (Staphylococcus aureus [4]): 2 mg/L (≈ 5.93 µM) | MBC50 (Streptococcus pyogenes): 1 mg/L (≈ 2.96 µM) | MBC90 (Streptococcus pyogenes): 2 mg/L (≈ 5.93 µM) | MIC50 (Streptococcus pyogenes): 0.5 mg/L (≈ 1.48 µM) | MIC90 (Streptococcus pyogenes): 1 mg/L (≈ 2.96 µM)

CN(C)c1ccc(O)c2c1C[C@H]1C[C@H]3[C@H](N(C)C)C(O)=C(C(N)=O)C(=O)[C@@]3(O)C(O)=C1C2=O [MINOCYCLINE]
MIC50 (Staphylococcus aureus [1]): 4 mg/L (≈ 8.74 µM) | MIC90 (Staphylococcus aureus [1]): 8 mg/L (≈ 17.5 µM) | MIC50 (Enterococcus faecalis [2]): 16 mg/L (≈ 35 µM) | MIC90 (Enterococcus faecalis [2]): 32 mg/L (≈ 69.9 µM) | MBC50 (Enterococcus faecalis [3]): 16 mg/L (≈ 35 µM) | MBC90 (Enterococcus faecalis [3]): 64 mg/L (≈ 140 µM) | MIC50 (Enterococcus faecalis [3]): 8 mg/L (≈ 17.5 µM) | MIC90 (Enterococcus faecalis [3]): 16 mg/L (≈ 35 µM) | MBC50 (Staphylococcus aureus [4]): 8 mg/L (≈ 17.5 µM) | MBC90 (Staphylococcus aureus [4]): 32 mg/L (≈ 69.9 µM) | MIC50 (Staphylococcus aureus [4]): 4 mg/L (≈ 8.74 µM) | MIC90 (Staphylococcus aureus [4]): 8 mg/L (≈ 17.5 µM) | MBC50 (Streptococcus pyogenes): 8 mg/L (≈ 17.5 µM) | MBC90 (Streptococcus pyogenes): 16 mg/L (≈ 35 µM) | MIC50 (Streptococcus pyogenes): 4 mg/L (≈ 8.74 µM) | MIC90 (Streptococcus pyogenes): 8 mg/L (≈ 17.5 µM)

CN[C@H](CC(C)C)C(=O)N[C@H]1C(=O)N[C@@H](CC(N)=O)C(=O)N[C@H]2C(=O)N[C@H]3C(=O)N[C@H](C(=O)N[C@H](C(=O)O)c4cc(O)cc(O)c4-c4cc3ccc4O)[C@H](O)c3ccc(c(Cl)c3)Oc3cc2cc(c3O[C@@H]2O[C@H](CO)[C@@H](O)[C@H](O)[C@H]2O[C@H]2C[C@](C)(N)[C@H](O)[C@H](C)O2)Oc2ccc(cc2Cl)[C@H]1O [VANCOMYCIN]
MBC50 (Staphylococcus aureus [1]): 1 mg/L (≈ 0.69 µM) | MBC90 (Staphylococcus aureus [1]): 2 mg/L (≈ 1.38 µM) | MIC50 (Staphylococcus aureus [1]): 1 mg/L (≈ 0.69 µM) | MIC90 (Staphylococcus aureus [1]): 2 mg/L (≈ 1.38 µM) | MBC50 (Enterococcus faecalis [2]): 64 mg/L (≈ 44.2 µM) | MBC90 (Enterococcus faecalis [2]): 256 mg/L (≈ 177 µM) | MIC50 (Enterococcus faecalis [2]): 32 mg/L (≈ 22.1 µM) | MIC90 (Enterococcus faecalis [2]): 64 mg/L (≈ 44.2 µM) | MBC50 (Enterococcus faecalis [3]): 2 mg/L (≈ 1.38 µM) | MBC90 (Enterococcus faecalis [3]): 4 mg/L (≈ 2.76 µM) | MIC50 (Enterococcus faecalis [3]): 1 mg/L (≈ 0.69 µM) | MIC90 (Enterococcus faecalis [3]): 2 mg/L (≈ 1.38 µM) | MBC50 (Staphylococcus aureus [4]): 1 mg/L (≈ 0.69 µM) | MBC90 (Staphylococcus aureus [4]): 2 mg/L (≈ 1.38 µM) | MIC50 (Staphylococcus aureus [4]): 1 mg/L (≈ 0.69 µM) | MIC90 (Staphylococcus aureus [4]): 2 mg/L (≈ 1.38 µM) | MBC50 (Streptococcus pyogenes): 1 mg/L (≈ 0.69 µM) | MBC90 (Streptococcus pyogenes): 2 mg/L (≈ 1.38 µM) | MIC50 (Streptococcus pyogenes): 0.5 mg/L (≈ 0.345 µM) | MIC90 (Streptococcus pyogenes): 1 mg/L (≈ 0.69 µM)
